According to patent US20240254186A1, “GLP-1 Receptor Agonists Having Improved Pharmacological and Drug Delivery Properties” (priority 2021, published 2024):
Numbered stars: 1 amine (or outer) side, 2 acyl side, 3 side chain; on linkers, the order of the positions; unused ones are H or OH. Square brackets hold non-standard residues; d marks the D form. Side chains are listed from the residue outwards. Peptide text beside a SMILES is read from it. * marks the point of attachment. Dap(Nα-HOOC(CH2)16CO)OH = O=C(O)CCCCCCCCCCCCCCCCC(=O)N[C@@H](CN*)C(=O)O; X5 = O=C(O)CCCCCCCCCCCCCCCc1cn(-c2ccc(C[C@H](N[*:1])C(=O)[*:2])cc2)nn1; X3 = O=C(O)CCCCCCCCCCCCCCCc1cnnn1-c1ccc(C[C@H](N[*:1])C(=O)[*:2])cc1; X7 = C[C@@](Cc1ccc(-c2ccccc2)cc1)(N[*:1])C(=O)[*:2]; X4 = C[C@](Cc1ccc(-c2ccccc2)cc1)(N[*:1])C(=O)[*:2]; Bip = N[C@@H](Cc1ccc(-c2ccccc2)cc1)C(=O)O; C18 diacid = O=C(O)CCCCCCCCCCCCCCCCC(=O)*; X2 = O=C(CCc1ccc(I)cc1)N[C@@H](CN*)C(=O)O; αMePhe(2-F) = C[C@](N)(Cc1ccccc1F)C(=O)O; γGlu = O=C(O)[C@H](CCC(=O)[*:2])N[*:1]; PEG4 = NCCOCCOCCOCCOCCC(=O)O; αMeP = C[C@@]1(C(=O)O)CCCN1; AEEA = NCCOCCOCC(=O)O; Aib = CC(C)(N)C(=O)O; CO = O=C([*:1])[*:2]

Molecular target: T1, hGLP1 receptor (Homo sapiens, UniProt P43220)
T1 construct: expressed in transfected cells; host or cells: HEK (human embryonic kidney) cells co-expressing hGLP1 receptor and a CRE-Luciferase construct
Assay: cAMP HTRF agonist assay in HEK cells co-expressing the hGLP1 receptor and CRE-Luciferase construct
Format: cell-based
Conditions: Table 6; cell annotated (0% albumin); read-out: cAMP EC50
Experimental: Human embryonic kidney cells (HEK) co-expressing the hGLP1 receptor and CRE-Luciferase construct were used to determine agonist potency in this assay. The cells were thawed briefly at 37° C., transferred to a sterile tube and re-suspended in complete media at 37° C. Cells were centrifuged at 1000 rpm for 5 minutes and cells collected; cells were re-suspended in assay buffer consisting of DPBS (GIBCO) with 500 μM of the phosphodiesterase inhibitor IBMX. […] The optimal cell density was determined to be 1000 cells/well; cells were added to wells in 384-well plates containing appropriate pre-prepared dilutions of compounds (test peptides or reference compound exendin-4), sealed and incubated with CO2 for 30 min. Test peptide solutions were diluted from 10 mM stock solutions; for most peptides an initial run was performed in duplicate from a maximal concentration of 1.0 μM, with 11 concentrations tested for each peptide using serial 1:3 dilution from this maximal concentration. […] The agonist assay was a homogeneous time-resolved fluorescence (HTRF) assay (Cisbio).
Following incubation of the cells for 30 minutes with test or reference peptides, 5 μL of the cAMP acceptor cAMP-d2, prepared previously as a working solution from frozen stock (1:20 dilution), was added to each well of the assay plate, along with 5 μL of anti-cAMP antibody-cryptate working solution (diluted 1:20 from frozen stock). The wells were incubated for 1 hour at room temperature, and fluorescence was then read at 665 and 615 nm with an Envision reader with TRF laser. Data were saved and analyzed using Prism software (GraphPad). Concentration-response analysis was performed using 4-parameter logistic fits of the resulting data, and EC50 values obtained for each test and reference compound.

T1 sequence (P43220 24-463): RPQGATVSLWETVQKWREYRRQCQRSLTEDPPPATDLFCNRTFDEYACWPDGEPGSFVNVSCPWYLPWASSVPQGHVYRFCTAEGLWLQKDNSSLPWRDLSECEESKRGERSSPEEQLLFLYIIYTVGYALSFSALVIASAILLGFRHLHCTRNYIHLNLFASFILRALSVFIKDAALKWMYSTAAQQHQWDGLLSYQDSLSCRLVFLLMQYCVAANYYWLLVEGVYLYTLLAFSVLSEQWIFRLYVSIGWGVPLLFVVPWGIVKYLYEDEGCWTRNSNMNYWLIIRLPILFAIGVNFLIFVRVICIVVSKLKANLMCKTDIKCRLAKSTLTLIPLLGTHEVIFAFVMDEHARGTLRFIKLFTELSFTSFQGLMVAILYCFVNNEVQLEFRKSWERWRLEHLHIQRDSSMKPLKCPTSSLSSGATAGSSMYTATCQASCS

Row | Structure (SMILES) | EC50
1 | C[C@@H](O)[C@H](NC(=O)CNC(=O)[C@H](CCC(=O)O)NC(=O)[C@]1(C)CCCN1C(=O)[C@@H](N)Cc1c[nH]cn1)C(=O)N[C@@](C)(Cc1ccccc1F)C(=O)N[C@H](C(=O)N[C@@H](CO)C(=O)N[C@@H](CC(=O)O)C(=O)N[C@@H](Cc1ccc(-c2ccccc2)cc1)C(=O)N[C@@H](Cc1ccc(-n2cc(CCCCCCCCCCCCCCCC(=O)O)nn2)cc1)C(N)=O)[C@@H](C)O [4-70-i1, H2N-His-α-MePro-Glu-Gly-Thr-α-MePhe(2-F)-Thr-Ser-Asp-Bip-FN3(C18 acid)-C(O)NH2] (H-H[αMeP]EGT[αMePhe(2-F)]TSD[Bip][X5]-NH2) | 0.04 nM
2 | C[C@@H](O)[C@H](NC(=O)CNC(=O)[C@H](CCC(=O)O)NC(=O)[C@]1(C)CCCN1C(=O)[C@@H](N)Cc1c[nH]cn1)C(=O)N[C@@](C)(Cc1ccccc1F)C(=O)N[C@H](C(=O)N[C@@H](CO)C(=O)N[C@@H](CC(=O)O)C(=O)N[C@@H](Cc1ccc(-c2ccccc2)cc1)C(=O)N[C@@](C)(Cc1ccc(-c2ccccc2)cc1)C(N)=O)[C@@H](C)O [4-73-i1, H2N-His-α-MePro-Glu-Gly-Thr-α-MePhe(2F)-Thr-Ser-Asp-Bip-α-MeBip-C(O)NH2] (H-H[αMeP]EGT[αMePhe(2-F)]TSD[Bip][X7]-NH2) | 0.05 nM
3 | C[C@@H](O)[C@H](NC(=O)CNC(=O)[C@H](CCC(=O)O)NC(=O)[C@]1(C)CCCN1C(=O)[C@@H](N)Cc1c[nH]cn1)C(=O)N[C@@](C)(Cc1ccccc1F)C(=O)N[C@H](C(=O)N[C@@H](CO)C(=O)N[C@@H](CC(=O)O)C(=O)N[C@@H](Cc1ccc(-c2ccccc2)cc1)C(=O)N[C@](C)(Cc1ccc(-c2ccccc2)cc1)C(N)=O)[C@@H](C)O [4-73-i2, H2N-His-α-MePro-Glu-Gly-Thr-α-MePhe(2F)-Thr-Ser-Asp-Bip-α-MeBip-C(O)NH2] (H-H[αMeP]EGT[αMePhe(2-F)]TSD[Bip][X4]-NH2) | 0.2 nM

The next lines start with the values.

Row | EC50 | Structure (SMILES)
4 | 0.7 nM | C[C@@H](O)[C@H](NC(=O)CNC(=O)[C@H](CCC(=O)O)NC(=O)[C@]1(C)CCCN1C(=O)[C@@H](N)Cc1c[nH]cn1)C(=O)N[C@@](C)(Cc1ccccc1F)C(=O)N[C@H](C(=O)N[C@@H](CO)C(=O)N[C@@H](CC(=O)O)C(=O)N[C@@H](Cc1ccc(-c2ccccc2)cc1)C(=O)N[C@@H](Cc1ccc(-n2nncc2CCCCCCCCCCCCCCCC(=O)O)cc1)C(N)=O)[C@@H](C)O [4-70-i2, H2N-His-α-MePro-Glu-Gly-Thr-α-MePhe(2-F)-Thr-Ser-Asp-Bip-FN3(C18 acid)-C(O)NH2] (H-H[αMeP]EGT[αMePhe(2-F)]TSD[Bip][X3]-NH2)
5 | 0.009 nM | C[C@@H](O)[C@H](NC(=O)CNC(=O)[C@H](CCC(=O)O)NC(=O)[C@]1(C)CCCN1C(=O)[C@@H](N)Cc1c[nH]cn1)C(=O)N[C@@](C)(Cc1ccccc1F)C(=O)N[C@H](C(=O)N[C@@H](CO)C(=O)N[C@@H](CC(=O)O)C(=O)N[C@@H](Cc1ccc(-n2cc(CCCCCCCCCCCCCCCC(=O)O)nn2)cc1)C(=O)N[C@@H](Cc1ccc(-c2ccccc2)cc1)C(N)=O)[C@@H](C)O [4-71-i1, H2N-His-α-MePro-Glu-Gly-Thr-α-MePhe(2-F)-Thr-Ser-Asp-FN3(C18 acid)-Bip-C(O)NH2] (H-H[αMeP]EGT[αMePhe(2-F)]TSD[X5][Bip]-NH2)
6 | 0.1 nM | C[C@@H](O)[C@H](NC(=O)CNC(=O)[C@H](CCC(=O)O)NC(=O)[C@]1(C)CCCN1C(=O)[C@@H](N)Cc1c[nH]cn1)C(=O)N[C@@](C)(Cc1ccccc1F)C(=O)N[C@H](C(=O)N[C@@H](CO)C(=O)N[C@@H](CC(=O)O)C(=O)N[C@@H](Cc1ccc(-n2nncc2CCCCCCCCCCCCCCCC(=O)O)cc1)C(=O)N[C@@H](Cc1ccc(-c2ccccc2)cc1)C(N)=O)[C@@H](C)O [4-71-i2, H2N-His-α-MePro-Glu-Gly-Thr-α-MePhe(2-F)-Thr-Ser-Asp-FN3(C18 acid)-Bip-C(O)NH2] (H-H[αMeP]EGT[αMePhe(2-F)]TSD[X3][Bip]-NH2)

Same assay, conditions: read-out: cAMP EC50, nM (0.1% albumin); Table 6, C-terminal PK-modifier conjugates; 0.1% albumin

Row | Structure (SMILES) | EC50
7 | C[C@@H](O)[C@H](NC(=O)CNC(=O)[C@H](CCC(=O)O)NC(=O)[C@]1(C)CCCN1C(=O)[C@@H](N)Cc1c[nH]cn1)C(=O)N[C@@](C)(Cc1ccccc1F)C(=O)N[C@H](C(=O)N[C@@H](CO)C(=O)N[C@@H](CC(=O)O)C(=O)N[C@@H](Cc1ccc(-c2ccccc2)cc1)C(=O)N[C@@H](Cc1ccc(-c2ccccc2)cc1)C(=O)NC(C)(C)C(=O)N[C@@H](CCCCNC(=O)CCOCCOCCOCCOCCNC(=O)CC[C@H](NC(=O)CCCCCCCCCCCCCCCCC(=O)O)C(=O)O)C(N)=O)[C@@H](C)O [4-65, H2N-His-α-MePro-Glu-Gly-Thr-α-MePhe(2-F)-Thr-Ser-Asp-Bip-Bip-C(O)NH-RY21] (H-H[αMeP]EGT[αMePhe(2-F)]TSD[Bip][Bip][Aib]K([PEG4-γGlu-C18 diacid])-NH2) | 3.8 nM
8 | C[C@@H](O)[C@H](NC(=O)CNC(=O)[C@H](CCC(=O)O)NC(=O)C(C)(C)NC(=O)[C@@H](N)Cc1c[nH]cn1)C(=O)N[C@@](C)(Cc1ccccc1F)C(=O)N[C@H](C(=O)N[C@@H](CO)C(=O)N[C@@H](CC(=O)O)C(=O)N[C@@H](Cc1ccc(-c2ccccc2)cc1)C(=O)N[C@H](Cc1ccc(OC(=O)NCCOCCOCC(=O)NCCOCCOCC(N)=O)cc1)C(N)=O)[C@@H](C)O [(D)-4-42, H2N-His-Aib-Glu-Gly-Thr-α-MePhe(2-F)-Thr-Ser-Asp-Bip-D-Tyr(O-R4)-C(O)NH2] (H-H[Aib]EGT[αMePhe(2-F)]TSD[Bip][dY]([CO-AEEA-AEEA-NH2])-NH2) | 791 nM
9 | C[C@@H](O)[C@H](NC(=O)CNC(=O)[C@H](CCC(=O)O)NC(=O)C(C)(C)NC(=O)[C@@H](N)Cc1c[nH]cn1)C(=O)N[C@@](C)(Cc1ccccc1F)C(=O)N[C@H](C(=O)N[C@@H](CO)C(=O)N[C@@H](CC(=O)O)C(=O)N[C@@H](Cc1ccc(-c2ccccc2)cc1)C(=O)N[C@H](Cc1ccc(OC(=O)NCCOCCOCC(=O)NCCOCCOCC(=O)NC[C@H](NC(=O)CCCCCCCCCCCCCCCCC(=O)O)C(=O)O)cc1)C(N)=O)[C@@H](C)O [(D)-4-43, H2N-His-Aib-Glu-Gly-Thr-α-MePhe(2-F)-Thr-Ser-Asp-Bip-D-Tyr(O-R5)-C(O)NH2] (H-H[Aib]EGT[αMePhe(2-F)]TSD[Bip][dY]([CO-AEEA-AEEA-Dap(Nα-HOOC(CH2)16CO)OH])-NH2) | 693 nM
10 | C[C@@H](O)[C@H](NC(=O)CNC(=O)[C@H](CCC(=O)O)NC(=O)C(C)(C)NC(=O)[C@@H](N)Cc1c[nH]cn1)C(=O)N[C@@](C)(Cc1ccccc1F)C(=O)N[C@H](C(=O)N[C@@H](CO)C(=O)N[C@@H](CC(=O)O)C(=O)N[C@@H](Cc1ccc(-c2ccccc2)cc1)C(=O)N[C@H](Cc1ccc(OC(=O)NCCOCCOCC(=O)NCCOCCOCC(=O)NCCOCCOCC(=O)NC[C@H](NC(=O)CCc2ccc(I)cc2)C(=O)O)cc1)C(N)=O)[C@@H](C)O [(D)-4-44, H2N-His-Aib-Glu-Gly-Thr-α-MePhe(2-F)-Thr-Ser-Asp-Bip-D-Tyr(O-R6)-C(O)NH2] (H-H[Aib]EGT[αMePhe(2-F)]TSD[Bip][dY]([CO-AEEA-AEEA-AEEA-X2])-NH2) | 299 nM
